Source: US11578074B2, “Nitrogenous heterocyclic compound, preparation method, intermediate, composition, and application” (SHANGHAI PHARMACEUTICALS HOLDING CO., LTD., priority 2017, dated 2023)
Read-outs that look alike come from different tables or passages of the source.

Key:
[1] = tested on: N87 (human gastric cancer cell NCI-N87); assay: In vitro proliferation inhibition assay of cell lines (CellTiter-Glo), N87; type: cell-based; settings: N87 cells, 72 hours
How it was run: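 Cells seeded overnight (BT-474 8.8×10^4 cells/mL, N87 6.6×10^4 cells/mL), then exposed to 9 compound concentrations in duplicate for 72 hours at 37° C, 5% CO2. Viability read by CellTiter-Glo luminescence.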

[2] = target: T1, CYP3A4 (Homo sapiens, UniProt P08684); assay: Direct inhibition (DI) of CYP3A4 in human liver microsomes; type: in vitro ADME; settings: human liver microsomes 0.2 mg/mL, 10 μM compound
T1 construct: A system of 100 μL human liver microsomes; from tissue; host or cells: human liver microsomes
T1 sequence (P08684 whole entry): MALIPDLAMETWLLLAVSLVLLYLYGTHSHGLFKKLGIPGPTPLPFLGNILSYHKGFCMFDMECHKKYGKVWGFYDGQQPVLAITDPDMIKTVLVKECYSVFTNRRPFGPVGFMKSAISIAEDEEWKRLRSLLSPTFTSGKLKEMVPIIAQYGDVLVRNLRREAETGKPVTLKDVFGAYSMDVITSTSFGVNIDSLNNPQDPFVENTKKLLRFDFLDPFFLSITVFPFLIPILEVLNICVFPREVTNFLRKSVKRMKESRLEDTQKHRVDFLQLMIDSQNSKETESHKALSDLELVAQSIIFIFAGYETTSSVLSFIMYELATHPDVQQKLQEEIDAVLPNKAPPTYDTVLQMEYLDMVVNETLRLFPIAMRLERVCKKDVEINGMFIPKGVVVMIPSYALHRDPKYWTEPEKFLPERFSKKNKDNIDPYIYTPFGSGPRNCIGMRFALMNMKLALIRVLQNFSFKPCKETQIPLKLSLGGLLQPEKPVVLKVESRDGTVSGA
How it was run: (§1)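 Pooled human liver microsomes (0.2 mg/mL) with 1 mM NADPH and 10 μM test compound were incubated for 20 min with a mixed probe-substrate cocktail (midazolam 10 μM, testosterone 100 μM, dextromethorphan 10 μM, diclofenac 20 μM, phenacetin 100 μM, mephenytoin 100 μM). Relative enzyme activity came from metabolite formation versus DMSO control.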

[3] = In vivo pharmacokinetics study in cynomolgus monkeys; settings: male, cynomolgus monkey, in vivo, po, 15 mg/kg
Protocol: 6 male cynomolgus monkeys (purchased from Guangxi Guidong Primate Development Experiment Co., Ltd., certificate No. SCXK (Guangxi) 2013-0057) were divided into 2 groups with 3 in each group, and all of the animals were fasted for about 12 hours before administration. One group was orally administrated with 15 mg/kg of the final product of Embodiment 22 (deionized water was added, followed by sonication for 30 minutes and stirring for 3 minutes, and a clear pale yellow dosing solution with a concentration of 3 mg/mL was prepared); one group was administrated with 15 mg/kg of Pyrotinib (deionized water was added, followed by sonication for 30 minutes and stirring for 4 minutes, and a clear yellow dosing solution with a concentration of 3 mg/mL was prepared). Blood samples were collected before administration and at 15, 30, 60, 90, 120, 150, 180, 240, 360, 480, 720 and 1440 minutes respectively after administration.
1.0 mL of blood was collected from each animal through jugular vein puncture at each time point and heparin sodium was used for anticoagulation. The blood samples were collected and placed in labeled centrifuge tubes, and plasma was centrifuged (centrifugation conditions: 3500 rpm, 10 minutes, 2-8° C.). To 50 μL of plasma sample was added 300 μL of acetonitrile containing internal standard (Propranolol, 25 ng/mL) to precipitate the protain. After vortexing for 10 minutes and centrifuging at 6000 g for 20 minutes, 100 μL of supernatant was taken and injected into a 96-well plate. The drug concentration in plasma was determined by UPLC/MS-MS.

[4] = target: T2, CYP2C19 (Homo sapiens, UniProt P33261); assay: Direct inhibition (DI) of CYP2C19 in human liver microsomes; type: in vitro ADME; settings: probe Mephenytoin, human liver microsomes 0.2 mg/mL, 10 μM compound, read-out: Direct inhibition (DI) 2C19 (Mephenytoin)
T2 construct: A system of 100 μL human liver microsomes; from tissue; host or cells: human liver microsomes
T2 sequence (P33261 whole entry): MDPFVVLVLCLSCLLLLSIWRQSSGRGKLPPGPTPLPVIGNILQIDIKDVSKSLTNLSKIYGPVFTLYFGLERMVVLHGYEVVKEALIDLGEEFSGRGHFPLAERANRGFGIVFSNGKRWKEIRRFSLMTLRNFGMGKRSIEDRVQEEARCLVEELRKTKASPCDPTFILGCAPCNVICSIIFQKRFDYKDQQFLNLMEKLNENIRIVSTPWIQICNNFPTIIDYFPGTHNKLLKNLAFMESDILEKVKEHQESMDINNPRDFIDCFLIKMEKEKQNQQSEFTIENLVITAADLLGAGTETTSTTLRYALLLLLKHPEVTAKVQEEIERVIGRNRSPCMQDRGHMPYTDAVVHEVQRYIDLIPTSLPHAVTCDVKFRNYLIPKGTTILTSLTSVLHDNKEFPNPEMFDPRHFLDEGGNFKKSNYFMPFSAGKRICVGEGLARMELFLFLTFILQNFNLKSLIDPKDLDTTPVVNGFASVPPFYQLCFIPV
How it was run: as §1

[5] = tested on: HER2 overexpressing human gastric cancer NCI-N87 nude mice xenograft; assay: HER2 overexpressing human gastric cancer NCI-N87 nude mice xenograft model; type: in vivo; settings: continuous oral administration for 21 days
Text: We have established nude mice xenograft model for HER2 overexpression.

[6] = In vivo pharmacokinetic study in rats; settings: male, SD, rat, plasma, oral, 3 mg/kg intravenous, 6 mg/kg intragastric
Protocol: Five male SD rats, weighing 180-220 g (provided by Shanghai Xipuerbikai Experimental Animal Co., Ltd, certificate No. 20130016005408). The rats were fasted for feed but not water for 12-16 hours before the experiment. Two rats were intravenously injected with 3 mg/kg (which was dissolved by the ratio 0.9% physiological saline:PEG 400=7:3, to give a clear solution with a concentration of 1 mg/mL and a dosage volume of 3 mL/kg) of the final product of Embodiment 45. Blood samples were collected before administration and at 2, 5, 15, 30, 60, 90, 120, 240, 360, 480, 600 and 1440 minutes after administration respectively; three rats were intragastricly administrated with 6 mg/kg (0.5% CMC-Na was added and grounded into a uniform suspension with a concentration of 0.75 mg/mL and a dosage volume of 8 mL/kg) of the final product of Embodiment 45. Blood samples were collected before administration and at 5, 15, 30, 60, 90, 120, 240, 360, 480, 600 and 1440 minutes after administration respectively.
0.4 mL of blood was taken from fundus venous plexus of mice and rats into a heparinized centrifuge tube (10 μL heparin sodium solution/tube). […] After vortexing for 10 minutes and centrifuging at 6000 g and 4° C. for 10 minutes, the supernatant was diluted with mobile phase in a 96-well plate, and the drug concentration in plasma was determined by UPLC/MS-MS.

[7] = probe Midazolam, read-out: Direct inhibition (DI) 3A4 (Midazolam)
[8] = probe Testosterone, read-out: Direct inhibition (DI) 3A4 (testosterone)

bioavailability [6] [%]	SMILES	IC50 [1] [nM]	inhibition at 20 min, 10 µM [2, 7] [%]	inhibition at 20 min, 10 µM [2, 8] [%]	AUC [3] [ng·h/mL]	oral absorption peak concentration [3] [ng/mL]	inhibition at 20 min, 10 µM [4] [%]	tolerability ([5]; 5 mg/kg, 10 mg/kg and 20 mg/kg)	tumor volume inhibition rate (GI %) ([5]; 5 mg/kg) [%]	tumor volume inhibition rate (GI %) ([5]; 10 mg/kg) [%]	tumor volume inhibition rate (GI %) ([5]; 20 mg/kg) [%]
	CCOc1cc2ncnc(Nc3ccc(Oc4ccn5ncnc5c4)c(C)c3)c2cc1NC(=O)/C=C/[C@H]1CCCN1C [Final product of Embodiment 22, (R,E)-N-(4-((4-([1,2,4]triazolo[1,5-a]pyridin-7-yloxy)-3-methylphenyl)amino)-7-ethoxyquinazolin-6-yl)-3-(1-methylpyrrolidin-2-yl)acrylamide]	0.68	12	32	5580	506.5	37	tolerant	51.5	130.1	146.2
71.3	CCOc1cc2ncnc(Nc3ccc(Oc4ccn5ncnc5c4)c(C)c3)c2cc1NC(=O)/C(F)=C/[C@H]1CCCN1C [Final product of Embodiment 45]	1.3	6	24			11				
